# In PMC6268492, “Synthesis and Antiangiogenic Activity of Novel Gambogic Acid Derivatives” (Molecules, 2012):
# Where two headings read alike, the source gives them in different places.
# Columns and labels:
# [1] = system: transgenic fli-1: enhanced GFP zebrafish embryos; test: Zebrafish embryo assay: antiangiogenic effects; assay type: in vivo, zebrafish (Danio rerio); conditions: for inhibition in vivo at 1 µM / antiangiogenic rates: 1 μM
# Procedure: As stated previously, zebrafish is regarded as a powerful tool in the study of human diseases. […] In this study, all GA derivatives were incubated with the transgenic friend leukemia integration-1 (fli-1): enhanced GFP zebrafish embryos which carried a fli-1 promoter which can drive the expression of GFP in the whole endothelium.
# Figure 1 Effects on neovascularization in zebrafish embryos. The transgenic fli-1: enhanced GFP zebrafish embryos in embryo water (0.2 g/L of instant ocean salt in distilled water) incubated with 1 μM of compounds at 6 h postfertilization (hpf) for 24 h. Zebrafish embryos were imaged (Imager.Z1, magnification: left, 40×; right, 100×).
# Using transgenic fli-1: enhanced GFP zebrafish embryos, we investigated the effects of all compounds on angiogenesis. […] At about 6 h post fertilization (hpf), the embryos were sorted in the 6-well plate (six embryos/well), removing dead and unhealthy embryos. Then the embryos were treated with the indicated concentrations of compounds which were added into embryo water. After incubation for 24 or 48 h, the embryos were anesthetized using 0.05% 2-phenoxyethanol in embryo water, quantified and photographed.
# [2] = system: A549; test: MTT assay, cell proliferation; assay type: cell-based; conditions: Homo sapiens, 24 h, read-out: IC50, inhibition of cell proliferation
# Procedure: (§1) HepG2, HCT116, HeLa and LO2 cell lines were cultured in DMEM containing 10% fetal bovine serum (FBS), 100 IU/mL penicillin and 100 µg/mL streptomycin; A549 and K562 cell lines were cultured in RPMI 1640 medium containing 10% fetal bovine serum (FBS), 100 IU/mL penicillin and 100 µg/mL streptomycin; Human umbilical vein endothelial cells (HUVECs) were cultured on gelatin-coated culture flasks in M-199 medium with 20% fetal bovine serum (FBS), 2 ng/mL VEGF, 10 ng/mL basic FGF, 100 IU/mL penicillin, and 100 μg/mL streptomycin; all of them were obtained from the American Type Culture Collection (ATCC) and all cell lines were incubated in an atmosphere of 5% CO2 at 37 °C.
# (§2) Cells were treated with various concentrations of compound in 96-well culture plates for 24 h in final volumes of 200 μL (5 × 10^3 cells/well). Then 20 μL of MTT solution (5 mg/mL) was added to each well, and cells were incubated for an additional 3 h. Then the medium was carefully removed, and precipitates were dissolved in 150 μL of DMSO, shaken mechanically for 30 min, and then absorbance values at a wavelength of 570 nm were taken on a spectrophotometer (Molecular Devices, Sunnyvale, CA, USA). Values were calculated using percentage of growth versus untreated control. The IC50 was defined as the concentration that caused 50% inhibition of cell proliferation, and was calculated by SAS statistical software.
# [3] = system: HCT116; test: MTT assay, cell proliferation; assay type: cell-based; conditions: Homo sapiens, HCT-116, 24 h, read-out: IC50, inhibition of cell proliferation
# Procedure: as §1, §2
# [4] = system: HeLa; test: MTT assay, cell proliferation; assay type: cell-based; conditions: Homo sapiens, 24 h, read-out: IC50, inhibition of cell proliferation
# Procedure: as §1, §2
# [5] = system: HepG2; test: MTT assay, cell proliferation; assay type: cell-based; conditions: Homo sapiens, 24 h, read-out: IC50, inhibition of cell proliferation
# Procedure: as §1, §2
# [6] = system: K562; test: MTT assay, cell proliferation; assay type: cell-based; conditions: Homo sapiens, 24 h, read-out: IC50, inhibition of cell proliferation
# Procedure: as §1, §2
# [7] = system: HUVEC; test: MTT assay, cell proliferation; assay type: cell-based, Human; conditions: Homo sapiens, 24 h, read-out: IC50, inhibition of cell proliferation
# Procedure: Inhibiting the proliferation of ECs is another important strategy for antiangiogenesis. […] As the exposure time of these derivatives was 24 h in the migration assay and 6 h in the tube formation assay, the effect of the incubation for 24 h in the presence of these compounds on HUVECs proliferation was then tested. Cell viability was assessed by the MTT method. We can see from Table 4 that these compounds had different antiproliferative activities.
# as §1, §2
# [8] = system: LO2; test: MTT assay, cytotoxicity; assay type: cell-based; conditions: Homo sapiens, L02, 24 h, read-out: IC50, inhibition of cell proliferation
# Procedure: as §1, §2
# [9] = Danio rerio, zebrafish embryos, vs vehicle (0.05% DMSO), read-out: Anti-angiogenic phenotype
Structure (SMILES),"antiangiogenic activities ([1]; 2.5 μM, not enhanced greatly at 10 μM)","inhibition in vivo at 1 µM ([1]; Danio rerio, zebrafish embryos, read-out: antiangiogenic rates) [%]","inhibition in vivo at 1 µM [1, 9] [%]","inhibition in vivo at 2.5 µM ([1]; Danio rerio, 2.5 μM, zebrafish embryos, vs vehicle (0.05% DMSO), read-out: Anti-angiogenic phenotype) [%]","inhibition in vivo at 10 µM [1, 9] [%]",IC50 [2] [µM],IC50 [3] [µM],IC50 [4] [µM],IC50 [5] [µM],IC50 [6] [µM],IC50 [7] [µM],IC50 [8] [µM],antiangiogenic rates ([1]; zebrafish embryos)
"CC(C)=CCCC1(C)C=Cc2c(O)c3c(c(CC=C(C)C)c2O1)OC12C(=CC4CC1C(C)(C)OC2(C/C=C(/C)C(=O)Oc1ccc(NC(=O)CCCl)cc1)C4=O)C3=O (stereo not shown) [Compound 9, 3-Chloro-N-(4-phenylgambogate)propanamide]",moderate,< 25,< 25,25 to 50,25 to 50,3.75 ± 0.35,2.05 ± 0.41,3.42 ± 0.19,5.16 ± 0.55,1.14 ± 0.03,4.27 ± 0.25,1 ± 0.1,–
"CC(C)=CCCC1(C)C=Cc2c(O)c3c(c(CC=C(C)C)c2O1)OC12C(=CC4CC1C(C)(C)OC2(C/C=C(/C)C(=O)Oc1ccc(C(=O)CBr)cc1)C4=O)C3=O (stereo not shown) [Compound 16, 4-(2-Bromoacetyl)phenyl gambogate]",–,–,–,–,25 to 50,> 80,5.08 ± 0.77,8.98 ± 0.58,4.51 ± 0.29,3.46 ± 0.34,11.9 ± 1.36,5.25 ± 0.51,inactive
"COCCc1ccc(OC(=O)/C(C)=C\CC23OC(C)(C)C4CC(C=C5C(=O)c6c(O)c7c(c(CC=C(C)C)c6OC542)OC(C)(CCC=C(C)C)C=C7)C3=O)cc1 (stereo not shown) [Compound 18, 4-(2-Methoxyethyl)phenyl gambogate]",–,–,–,–,–,66.2 ± 1.65,2.45 ± 0.15,> 80,6.45 ± 0.37,7.52 ± 0.83,10.4 ± 1.08,15.2 ± 0.72,–
"CC(C)=CCCC1(C)C=Cc2c(O)c3c(c(CC=C(C)C)c2O1)OC12C(=CC4CC1C(C)(C)OC2(C/C=C(/C)C(=O)Oc1ccc(Br)cc1)C4=O)C3=O (stereo not shown) [Compound 19, 4-Bromophenyl gambogate]",–,–,–,–,–,> 80,70.2 ± 3.06,> 80,> 80,> 80,68 ± 4,> 80,–
"CC(C)=CCCC1(C)C=Cc2c(O)c3c(c(CC=C(C)C)c2O1)OC12C(=CC4CC1C(C)(C)OC2(C/C=C(/C)C(=O)Oc1ccc(C=O)cc1)C4=O)C3=O (stereo not shown) [Compound 20, 4-Formylphenyl gambogate]",–,–,–,–,25 to 50,31.2 ± 2.29,7.9 ± 0.14,24.3 ± 2.13,5.86 ± 0.4,4.52 ± 0.43,7.7 ± 0.32,9.92 ± 0.52,inactive
"CCc1ccc(OC(=O)/C(C)=C\CC23OC(C)(C)C4CC(C=C5C(=O)c6c(O)c7c(c(CC=C(C)C)c6OC542)OC(C)(CCC=C(C)C)C=C7)C3=O)cc1 (stereo not shown) [Compound 21, 4-Ethylphenyl gambogate]",–,–,–,–,–,> 80,> 80,> 80,> 80,> 80,70.5 ± 4.86,> 80,–
"COc1ccc(OC(=O)/C(C)=C\CC23OC(C)(C)C4CC(C=C5C(=O)c6c(O)c7c(c(CC=C(C)C)c6OC542)OC(C)(CCC=C(C)C)C=C7)C3=O)cc1Br (stereo not shown) [Compound 22, 2-Bromo-4-methoxyphenyl gambogate]",–,–,–,–,25 to 50,> 80,36.9 ± 0.64,> 80,63.2 ± 3.88,36.9 ± 0.56,51.3 ± 1.1,> 80,inactive
"CC(C)=CCCC1(C)C=Cc2c(O)c3c(c(CC=C(C)C)c2O1)OC12C(=CC4CC1C(C)(C)OC2(C/C=C(/C)C(=O)Oc1ccc(Br)c(F)c1F)C4=O)C3=O (stereo not shown) [Compound 24, 4-Bromo-2,3-difluorophenyl gambogate]",–,–,–,–,–,> 80,> 80,> 80,> 80,> 80,> 80,> 80,–
"CC(C)=CCCC1(C)C=Cc2c(O)c3c(c(CC=C(C)C)c2O1)OC12C(=CC4CC1C(C)(C)OC2(C/C=C(/C)C(=O)Oc1ccc(C(C)(C)CC(C)(C)C)cc1)C4=O)C3=O (stereo not shown) [Compound 25, 4-(2,4,4-Trimethylpentan-2-yl)phenyl gambogate]",–,–,–,–,–,> 80,> 80,> 80,> 80,> 80,> 80,> 80,–
"CC(=O)Nc1ccccc1OC(=O)/C(C)=C\CC12OC(C)(C)C3CC(C=C4C(=O)c5c(O)c6c(c(CC=C(C)C)c5OC431)OC(C)(CCC=C(C)C)C=C6)C2=O (stereo not shown) [Compound 27, 2-Acetamidophenyl gambogate]",–,–,–,–,–,1.22 ± 0.25,1.05 ± 0.07,3.51 ± 0.15,0.69 ± 0.08,0.52 ± 0.02,0.5 ± 0.03,1.52 ± 0.12,–
"CC(C)=CCCC1(C)C=Cc2c(O)c3c(c(CC=C(C)C)c2O1)OC12C(=CC4CC1C(C)(C)OC2(C/C=C(/C)C(=O)Sc1nccs1)C4=O)C3=O (stereo not shown) [Compound 29, S-thiazol-2-yl gambogthioate]",–,–,–,–,–,0.63 ± 0.01,1.63 ± 0.15,1.45 ± 0.07,0.85 ± 0.15,0.79 ± 0.06,6.64 ± 0.11,4.28 ± 0.33,–
"CC(=O)Nc1ccc(SC(=O)/C(C)=C\CC23OC(C)(C)C4CC(C=C5C(=O)c6c(O)c7c(c(CC=C(C)C)c6OC542)OC(C)(CCC=C(C)C)C=C7)C3=O)cc1 (stereo not shown) [Compound 30, 4-Acetamidophenyl gambogthioate]",–,–,–,–,–,1.24 ± 0.09,1.33 ± 0.07,3.43 ± 0.28,1.72 ± 0.03,0.44 ± 0.02,1.03 ± 0.07,2.84 ± 0.34,–
"CC(C)=CCCC1(C)C=Cc2c(O)c3c(c(CC=C(C)C)c2O1)OC12C(=CC4CC1C(C)(C)OC2(C/C=C(/C)C(=O)n1cccn1)C4=O)C3=O (stereo not shown) [Compound 33, 1-Gambogyl pyrazole]",–,–,–,–,–,1.3 ± 0.08,1.2 ± 0.09,4.23 ± 0.39,1 ± 0.06,0.53 ± 0.05,0.57 ± 0.03,1.75 ± 0.09,–
"CC(C)=CCCC1(C)C=Cc2c(O)c3c(c(CC=C(C)C)c2O1)OC12C(=CC4CC1C(C)(C)OC2(C/C=C(/C)C(=O)Nc1nc2ccccc2s1)C4=O)C3=O (stereo not shown) [Compound 34, N-(benzo[d]thiazol-2-yl) gambogamide]",–,–,–,–,–,21.4 ± 3.71,7.74 ± 1.43,> 80,8.65 ± 0.46,> 20,5.63 ± 0.2,7.3 ± 1.2,–
